How the values were obtained:
[1] = tested on: p53 in HeLa, CaSki, and SiHa cells; test: Immunoblot for p53 in cervical cancer cells; format: cell-based; settings: 24 hr
Description: Tubulin was used as a loading control.
Total cellular protein (10-20 μg) from each sample was subjected to SDS-PAGE, transferred to PVDF membranes and analyzed by Western blot. Antibodies for Western blot analysis were obtained by the following commercial sources: anti-ubiquitin, anti-p53 (FL393), anti-p21(WAF1), anti-hDLG-1(2D11), anti-Puma, Bak, Bax (Cell Signaling Technology, Danvers, Mass.), anti-IκB-α (C-15), anti-ATF-4 (SC-200) (Santa Cruz Biotechnology, Santa Cruz, Calif.), anti-PARP (BD Pharmingen, San Diego, Calif.), anti HSP90 (Stressgen Corp, Victoria BC, Canada), anti-tubulin (Sigma, St. Louis, Mo.), anti-Actin, anti-ADRM1 (anti-RPN13), anti-RPN2 (anti-PSMD1) (Sigma-Aldrich), anti-RPN10, UCH37 (Cell-signaling), anti-RPN1 (proteasome 19S subunit anti-S2) (Thermo Scientific), streptavidin Dyna beads (Invitrogen), HRP-streptavidin (Invitrogen), peroxidase-linked anti-mouse Immunoglobulin G and anti-rabbit IgG (GE Healthcare UK Ltd, UK) and utilized at the concentration recommended by the manufacturer.

RPN13 Pru domain = target: T1, RPN13 Pru domain (Homo sapiens, UniProt Q16186); test: NMR and LC-MS of RA190-exposed RPN13; format: binding; settings: site-directed mutagenesis, NMR
T1 construct: RPN13 (1-150), which includes its Pru domain; made in house
Description: By contrast, RPN13 Pru C^60,80,121.
NMR spectra were acquired at 25° C. or 10° C. on Bruker NMR spectrometers operating at 850 or 900 MHz and equipped with cryogenically cooled probes. Processing was performed in NMRPipe^13 and the resulting spectra visualized with XEASY.^3 Protein concentrations were calculated by extinction coefficients based on amino acid composition and absorbance at 280 nm for protein dissolved in 6 M guanidine-HCl.
RPN13 Pru domain and RA190-exposed RPN13, RPN13 Pru domain, RPN13 Pru C60,80,121A, and RPN13 Pru C88A at protein concentrations of 1 μg/μL were treated with formic acid and injected onto a Nano2D-LC HPLC system (Eksigent, Dublin, Calif.) equipped with an Agilent Zorbax 300SB C8 column (3 mm ID, 10 cm length, 3.5 μm particle size). The samples were subjected to 10 min of incubation in 98% H2O:2% CH3CN, a 20 min linear gradient at 10 μL/min flow rate to 75% H2O:25% CH3CN followed by a 12 min linear gradient to 5% H2O:95% CH3CN and then a 2 min hold. Analysis was conducted by positive ionization electrospray with an LTQ-Orbitrap Velos instrument (Thermo Scientific, Waltham, Mass.) and adducts were quantified utilizing the Orbitrap detector with a resolution of 100,000 at a scan range of 400-2000 m/z.

MM lines = test: Cell viability, MM lines; format: cell-based; settings: antiproliferative effects, 48-hr treatment; read-out: IC50 against MM lines
Description: (§1) Cell viability was assayed using CellTiter 960 AQueous One Solution Reagent (Promega, Madison, Wis.). Cells seeded at the concentration of 1,000 cells/well for HeLa, 5,000 cells/well for ES2 and HCT116 and 10,000-20,000 cells/well for other cell lines in 100 μL medium in 96-well plate were treated with RA series compounds at specified concentrations. After the indicated periods, cells were incubated according to the manufacturer's protocol with the MTS labeling mixture for 1-2 hr and absorbance at 490 nm measured using a Benchmark Plus microplate spectrophotometer (BIO-RAD).

SiHa = test: Cell viability after 48-hr treatment (Table 1); format: cell-based; settings: 48-hr treatment; XTT assay; read-out: IC50, SiHa
Description: (§2) Cells seeded at the concentration of 1,000 cells/well for HeLa, 5,000 cells/well for ES2 and HCT116 and 10,000-20,000 cells/well for other cell lines in 100 μL medium in 96-well plate were treated with RA series compounds at specified concentrations. […]

HT3 = test: Cell viability after 48-hr treatment (Table 1); format: cell-based; settings: 48-hr treatment; XTT assay; read-out: IC50, HT3
Description: as §2

RPMI8226 = test: Cell viability after 48-hr treatment (Table 1); format: cell-based; settings: XTT assay
Description: as §2

HaCaT = test: Cell viability after 48-hr treatment (Table 1); format: cell-based; settings: 48-hr treatment; XTT assay; read-out: IC50, HaCaT
Description: as §2

HPV transformed cells = test: Cell viability, HPV transformed cells; format: cell-based; settings: antiproliferative effects, 48-hr treatment; read-out: IC50 against HPV transformed cells
Description: as §1

[2] = tested on: polyubiquitinated proteins, p53 and p21 in HeLa cells; test: Immunoblot of HeLa cell lysates; format: cell-based, human
Description: FIGS. 1 A-D show percent cell viability of RPMI-8226, ANBL6, and their respective in vitro selected bortezomib-resistant cell lines RPMI-8226-V10R and ANBL6-V10R as a function of 48 hr treatment with the indicated compounds. FIGS. 1 E-H show percent cell viability of indicated MM cell lines as a function of 48 hr treatment with the indicated compounds. […] Actin was used as a loading control. […] In FIG. 9C-E, purified 20S proteasomes were treated for 30 min with or without compounds (1 μM) prior to the addition of the specific fluorogenic substrate for chymotryptic (9C), tryptic (9D) or PGPH (9E) hydrolytic proteasome capacities. Mean±SD fluorescence associated with AMC released from the substrate was measured at 45 min. […] DMSO was added to all samples to a final concentration of 0.1% (upper panel). The effect of DMSO is highlighted by including ubiquitin—AMC (0.5 μM) hydrolysis with 2 nM UCH37 lacking DMSO (orange, bottom panel). In FIG. 9H, purified 19S RP (500 nM) in buffer was treated with corresponding compounds 30 min at 37° C. and AMC cleavage was measured with a fluorometer for 20 min. Ubal was used as a positive control.
Total cellular protein (10-20 μg) from each sample was subjected to SDS-PAGE, transferred to PVDF membranes and analyzed by Western blot. […]

[3] = tested on: RPMI-8226-V10R and ANBL6-V10R; test: Cell viability of bortezomib-resistant and parental MM lines; format: cell-based; settings: 48 hr treatment
Description: Actin was used as a loading control. […] In FIG. 9C-E, purified 20S proteasomes were treated for 30 min with or without compounds (1 μM) prior to the addition of the specific fluorogenic substrate for chymotryptic (9C), tryptic (9D) or PGPH (9E) hydrolytic proteasome capacities. […] DMSO was added to all samples to a final concentration of 0.1% (upper panel). The effect of DMSO is highlighted by including ubiquitin—AMC (0.5 μM) hydrolysis with 2 nM UCH37 lacking DMSO (orange, bottom panel). In FIG. 9H, purified 19S RP (500 nM) in buffer was treated with corresponding compounds 30 min at 37° C. and AMC cleavage was measured with a fluorometer for 20 min. Ubal was used as a positive control.
as §1

T1 sequence (Q16186 1-150): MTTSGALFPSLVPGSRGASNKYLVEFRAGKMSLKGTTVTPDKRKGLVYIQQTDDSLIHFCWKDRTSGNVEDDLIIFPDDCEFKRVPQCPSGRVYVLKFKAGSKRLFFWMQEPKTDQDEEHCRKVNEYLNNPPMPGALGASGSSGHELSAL

SMILES	p53 levels [1]	site of RA190 ligation (RPN13 Pru domain)	IC50 (MM lines)	IC50 (SiHa)	IC50 (HT3)	IC50 (RPMI8226)	IC50 (HaCaT)	IC50 (HPV transformed cells)	levels of K48-linked polyubiquitinated proteins ([2]; 4 hr)	efficacy against bortezomib-resistant derivative lines versus parental lines [3]	levels of p53 and p21 proteins ([2]; 1 μM, 12 h)	poly-ubiquitinated (Poly UB) proteins ([2]; 1 μM, 12 h)
Cl.N[C@@H](Cc1ccccc1)C(=O)N1CC(=Cc2ccc(Cl)c(Cl)c2)C(=O)C(=Cc2ccc(Cl)c(Cl)c2)C1 [RA190, 3,5-bis(3,4-dichlorobenzylidene)-1-(S-2-amino-3-phenyl)-piperidin-4-one-HCl salt]	elevated p53 levels	ligates to RPN13 C88	≤ 100 nM	750 nM	> 5000 nM	100 nM	> 2500 nM	≤ 300 nM	dramatically increased	equally efficacious		
Cl.NCCCC[C@H](NC(=O)OCC1c2ccccc2-c2ccccc21)C(=O)N1C/C(=C\c2ccc(Cl)c(Cl)c2)C(=O)/C(=C/c2ccc(Cl)c(Cl)c2)C1 [RA195]											elevated the levels of p53 and p21 proteins	caused the accumulation of poly-ubiqutinated (Poly UB) proteins
